Measured values from US10899764B2, “Imidazo isoindole derivative, preparation method therefor and medical use thereof” (Jiangsu Hengrui Medicine Co., Ltd., priority 2015, dated 2021).
Structures can show the parent of a compound that is named as a salt.

Key:
[1] = target: human IDO1 (Homo sapiens (Human), UniProt P14902); assay: Inhibition activity on human IDO1 (enzyme assay, absorbance at 480 nm); type: biochemical; settings: purified recombinant human IDO1, 1 hour at 37° C.; read-out: IC50 for inhibiting the activity of human IDO1
Procedure: Assay for Determining the Inhibition Activity of the Present Compounds on Human IDO1
Human IDO1 activity was tested in vitro by the following method.
This method is used to determine the inhibition effect of the compounds of the present invention on the activity of human IDO1.
The human IDO1 gene was transferred to Pet30a plasmid by gene cloning, and then transferred to competent Escherichia coli Rosseta. The IDO1 gene was scaled-up by culturing in liquid LB (Luria-Bertani) medium [which was prepared per liter according to “Molecular Cloning A Laboratory Manual” (J. Sambrook, D. W. Russell)]). The bacteria were collected and lysed by ultrasonic waves. The purified IDO1 was obtained by eluting from a column.
For testing, 24 μL of enzyme (IDO1) was diluted 100 times with 50 mM KPB to 2400 μL. The concentration of the enzyme solution was 2.6 ng/μL. A 96 well reaction plate (AXYGEN, PCR-96-FLT-C) (hereinafter referred to as the “reaction plate”) was added with the enzyme solution at 24 μL/well. The blank well was added with 24 μL of KPB [Preparation of KPB buffer (50 mM): 6.805 g of KH2PO4 was weighed using an analytical balance, and placed into a 1000 mL beaker, deionized water was added with a measuring cylinder to 900 ml, the pH was adjusted to 6.5 by 1M KOH, then the mixture was introduced into a 1 L measuring cylinder, and water was added to 1 L. It was stored at 4° C.]. Then, 1 μL of a compound or DMSO was added into the corresponding wells in the reaction plate. Preparation of solution A: 200 μL of 500 mM L-sodium ascorbate were added with 1050 μL of KPB, then the mixture was mixed uniformly for 3 seconds at the maximum speed in a turbine mixer. Solution B: 100 μL of 10 mM tryptophan were added with 100 μL of 100,000 unit/mL catalase, 5 μL of 10 mM methylene blue, and 1050 μL of KPB successively, then the mixture was mixed uniformly for 3 seconds at the maximum speed in a turbine mixer. Then, 1200 μL of solution A and 1200 μL of solution B were taken and mixed uniformly for 3 seconds at the maximum speed in a turbine mixer. The mixture was added to the reaction plate at 24 μL/well. The reaction plate was placed in a plate centrifuge and centrifuged for 15 seconds at the maximum speed, so that the reaction liquids converged to the bottom. The reaction mixture was mixed uniformly for 30 seconds on a shaker, and incubated for 1 hour at 37° C. in a constant temperature incubator. In the reaction plate, 30% (W/V) trichloroacetic acid was added at 10 μL/well, then the mixture was incubated for 15 minutes at 65° C. in an incubator. The reaction plate was centrifuged in a centrifuge for 5 minutes at 4700 RPM at room temperature. […] Then, 2% (W/V) 4-(dimethylamino)benzaldehyde/glacial acetic acid solution was added at 40 μL/well, and the mixture was mixed uniformly for 1 minute on a shaker at the maximum speed. After incubation for 2 minutes at room temperature, the absorbance at 480 nm was read on a Synergy HT (BIOTEK) reader.
The inhibition activity of the compounds of the present invention on human IDO1 was tested by the assay described above.

[2] = Pharmacokinetics assay in c57bl/6 mice after intragastric administration; type: in vivo; settings: mouse, plasma, po, female c57bl/6 mice, 3 mg/kg
Procedure: c57bl/6 mice were used as test animals. […] The pharmacokinetic behavior of the compounds of the present invention was studied and evaluated in c57bl/6 mice.
Eighteen (18) female c57bl/6 mice, were purchased from SINO-BRITSH SIPPR/BK LAB. ANIMAL LTD., CO.
The appropriate amount of each test compound was weighed, and added with 0.5% CMC-Na to prepare a 1 mg/mL suspension by an ultrasonic method.
After an overnight fast, 18 female c57bl/6 mice were equally divided into 2 groups, 9 mice per group, and administered the test compounds intragastrically at an administration volume of 0.2 mL/kg.
The samples were stored in heparinized test tubes, and centrifuged for 10 minutes at 3,500 rpm to separate blood plasma. The plasma samples were stored at −20° C.
(§1) The concentration of the test compounds in rat plasma after intragastric administration was determined by LC/MS/MS.

[3] = Pharmacokinetics assay in SD rats after intragastrical administration; type: in vivo; settings: both sexes, Sprague-Dawley, rat, plasma, po, intragastric, 10 mg/kg
Procedure: Sprague-Dawley (SD) rats were used as test animals. […] The pharmacokinetic behavior of the compounds of the present invention was studied and evaluated in rats.
Eight (8) healthy adult SD rats, half male and half female, were purchased from SINO-BRITSH SIPPR/BK LAB. […]
The samples were stored in heparinized test tubes, and centrifuged for 10 minutes at 3,500 rpm to separate blood plasma. The plasma samples were stored at −20° C. The rats were fed 2 hours after administration.
as §1

[4] = read-out: Apparent Distribution Volume Vz/F
[5] = read-out: Mean Residence Time MRT

Chain of human IDO1 (P14902 whole entry): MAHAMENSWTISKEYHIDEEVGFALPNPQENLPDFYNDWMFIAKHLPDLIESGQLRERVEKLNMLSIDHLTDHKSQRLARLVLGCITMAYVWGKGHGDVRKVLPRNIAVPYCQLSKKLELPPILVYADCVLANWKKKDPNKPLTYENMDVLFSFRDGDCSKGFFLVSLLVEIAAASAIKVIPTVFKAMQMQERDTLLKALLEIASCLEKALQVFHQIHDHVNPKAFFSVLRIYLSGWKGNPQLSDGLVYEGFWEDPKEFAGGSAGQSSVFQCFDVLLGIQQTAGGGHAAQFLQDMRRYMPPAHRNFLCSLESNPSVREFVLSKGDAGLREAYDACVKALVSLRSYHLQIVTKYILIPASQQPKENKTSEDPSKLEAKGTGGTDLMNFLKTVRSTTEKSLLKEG

SMILES | IC50 [1] [nM] | Vd/F [2, 4] [L/kg] | AUC ([2]; read-out: Area Under Curve AUC) [ng·h/mL] | CL/F ([2]; read-out: Clearance CLz/F) [mL/min/kg] | half-life ([2]; read-out: Half-Life t½ (converted)) [h] | MRT [2, 5] [h] | Cmax ([2]; read-out: Plasma Conc. Cmax) [ng/mL] | Vd/F [3, 4] [L/kg] | AUC ([3]; read-out: Area Under Curve AUC) [ng·h/mL] | CL/F ([3]; read-out: Clearance CLz/F) [mL/min/kg] | half-life ([3]; read-out: Half-Life T½ (converted)) [h] | MRT [3, 5] [h] | Cmax ([3]; read-out: Plasma Conc. Cmax) [ng/mL]
OCCn1cc(-c2ccc(N3CCC([C@H]4c5c(F)cccc5-c5cncn54)CC3)cc2)cn1 [Example 41, (S)-2-(4-(4-(4-(6-fluoro-5H-imidazo[5,1-a]isoindol-5-yl)piperidin-1-yl)phenyl)-1H-pyrazol-1-yl)ethanol] | 9.22 | 1.28 | 4630 | 10.8 | 2.06 | 1.36 | 1670 | – | – | – | – | – | –
Fc1cccc(N2CCC(C3c4c(F)cccc4-c4cncn43)CC2)c1 (centres unmarked) [Example 3, 6-fluoro-5-(1-(3-fluorophenyl)piperidin-4-yl)-5H-imidazo[5,1-a]isoindole trifluoroacetate] | 71.7 | – | – | – | – | – | – | 14.1 ± 1.72 | 2620 ± 977 | 70.9 ± 26.4 | 2.54 ± 0.91 | 2.72 ± 0.36 | 1070 ± 524
